# Experimental data taken from patent publication US20230355618A1, “RAF INHIBITOR FOR TREATING LOW GRADE GLIOMA” (Day One Biopharmaceuticals, Inc., priority 2020, published 2023).
# Columns and labels:
# [1] = Phase 1 pediatric dose-escalation trial: pharmacokinetic studies (exposure, AUC0-∞); assay type: in vivo, human; settings: for AUC(0-inf): human, plasma, oral
# Procedure: (§1) A 3+3 design is used. Based on the adult dose of 350 mg/m^2 by mouth every week (using a typical adult BSA of 1.7 m^2), the starting dose for the pediatric study was 80% of the adult RP2D, which was 280 mg/m^2 by mouth every week. Doses were escalated in an inter-patient stepwise fashion until dose-limiting toxicities (DLTs) were observed. The three different dose levels: 280 mg/m^2, 350 mg/m^2, and […].
# (§2) Treatment began at 80% of the adult dose (i.e., 280 mg/m^2 by mouth once weekly based on the following calculation: • An adult dose of 600 mg once weekly and an average adult BSA (m^2) of 1.73 m^2=350 mg/m^2 • 80% of 350 mg/m^2=280 mg/m^2 starting dose
# (§3) The dose escalation scheme is described in Table 1-A. The initial phase included 3 dose escalation levels to a maximum of 530 mg/m^2/dose weekly.
# Pharmacokinetic studies were performed on all patients in the phase I component of the trial as venous access allowed. The initial phase 1 included 3 dose escalation levels to a maximum of 530 mg/m^2/dose weekly. PK studies were also conducted to evaluate phosphorylated ERK in the peripheral blood mononuclear cells.
# [2] = system: pediatric low grade glioma (pLGG); assay: Phase 1 pediatric dose-escalation trial: tumor response by RANO criteria; assay type: in vivo, human; settings: for Best RANO Response (T1-Gad): pLGG
# Procedure: as §1, §2, §3
# FIG. 2 illustrates Phase 1 trial data of these nine individual pediatric LGG (pLGG) patient responses to Compound A over time. […] The median time to response was 10.5 weeks. Two patients achieved a complete response that was maintained throughout the dosing period of up to two years.
# Two of eight patients with a RAF fusion had prolonged stable disease.
# [3] = pLGG patients with a RAF fusion, Phase 1
structure (smiles),measurement,setting,value
"C[C@@H](NC(=O)c1ncnc(N)c1Cl)c1ncc(C(=O)Nc2cc(C(F)(F)F)c(Cl)cn2)s1 [Compound A, (R)-2-(1-(6-amino-5-chloropyrimidine-4-carboxamido)ethyl)-N-(5-chloro-4-(trifluoromethyl)pyridin-2-yl)thiazole-5-carboxamide]",Dose normalized AUC0-∞,"[1]; Subject-1 (PNOC014-01), predicted exposure at 530 mg/m^2 (predicted dose 456, 21 mg/kg), original dose cohort 280 mg/m^2",1268 µg·h/L
same,Dose normalized AUC0-∞,"[1]; Subject-2 (PNOC014-02), predicted exposure at 530 mg/m^2 (predicted dose 530, 19 mg/kg), original dose cohort 280 mg/m^2",682 µg·h/L
same,Dose normalized AUC0-∞,"[1]; Subject-3 (PNOC014-03), predicted exposure at 530 mg/m^2 (predicted dose 419, 23 mg/kg), original dose cohort 280 mg/m^2",614 µg·h/L
same,Dose normalized AUC0-∞,"[1]; Subject-4 (PNOC014-04), predicted exposure at 530 mg/m^2 (predicted dose 906, 13 mg/kg), original dose cohort 350 mg/m^2",705 µg·h/L
same,Dose normalized AUC0-∞,"[1]; Subject-5 (PNOC014-05), predicted exposure at 530 mg/m^2 (predicted dose 906, 14 mg/kg), original dose cohort 350 mg/m^2",653 µg·h/L
same,Dose normalized AUC0-∞,"[1]; Subject-6 (PNOC014-06), predicted exposure at 530 mg/m^2 (predicted dose 848, 16 mg/kg), original dose cohort 350 mg/m^2",640 µg·h/L
same,Dose normalized AUC0-∞,"[1]; Subject-7 (PNOC014-07), predicted exposure at 530 mg/m^2 (predicted dose 784, 15 mg/kg), original dose cohort 420 mg/m^2",701 µg·h/L
same,Dose normalized AUC0-∞,"[1]; Subject-9 (PNOC014-09), predicted exposure at 530 mg/m^2 (predicted dose 376, 24 mg/kg), original dose cohort 420 mg/m^2",1122 µg·h/L
same,AUC(0-inf),"[1]; 280 mg/m^2, Subject-1 (PNOC014-01), 21.9 kg, BSA 0.86 m^2, dose cohort 280 mg/m^2 by mouth once weekly, dose given 240 mg (11.0 mg/kg)",670 ng·h/mL
same,AUC(0-inf),"[1]; 280 mg/m^2, Subject-2 (PNOC014-02), 28.2 kg, BSA 1.0 m^2, dose cohort 280 mg/m^2 by mouth once weekly, dose given 280 mg (9.9 mg/kg)",361 ng·h/mL
same,AUC(0-inf),"[1]; 280 mg/m^2, Subject-3 (PNOC014-03), 18.1 kg, BSA 0.79 m^2, dose cohort 280 mg/m^2 by mouth once weekly, dose given 220 mg (12.2 mg/kg)",324 ng·h/mL
same,AUC(0-inf),"[1]; 350 mg/m^2, Subject-4 (PNOC014-04), 69.6 kg, BSA 1.71 m^2, dose cohort 350 mg/m^2 by mouth once weekly, dose given 600 mg (8.6 mg/kg)",466 ng·h/mL
same,AUC(0-inf),"[1]; 350 mg/m^2, Subject-5 (PNOC014-05), 66.5 kg, BSA 1.71 m^2, dose cohort 350 mg/m^2 by mouth once weekly, dose given 600 mg (9.0 mg/kg)",431 ng·h/mL
same,AUC(0-inf),"[1]; 350 mg/m^2, Subject-6 (PNOC014-06), 53.6 kg, BSA 1.6 m^2, dose cohort 350 mg/m^2 by mouth once weekly, dose given 560 mg (10.4 mg/kg)",423 ng·h/mL
same,AUC(0-inf),"[1]; 420 mg/m^2, Subject-7 (PNOC014-07), 53.7 kg, BSA 1.48 m^2, dose cohort 420 mg/m^2 by mouth once weekly, dose given 620 mg (11.5 mg/kg)",556 ng·h/mL
same,AUC(0-inf),"[1]; 420 mg/m^2, Subject-9 (PNOC014-09), 15.6 kg, BSA 0.71 m^2, dose cohort 420 mg/m^2 by mouth once weekly, dose given 300 mg (19.2 mg/kg)",889 ng·h/mL
same,patients who did not respond,"[2]; NF1-associated pLGG, Phase 1",One
same,Best RANO Response (T1-Gad),"[2]; Subject-1 (PNOC014-01), BSA 0.86 m^2, dose cohort 280 mg/m^2 once weekly",CR (CR = −100%)
same,Best RANO Response (T1-Gad),"[2]; Subject-2 (PNOC014-02), BSA 1.0 m^2, dose cohort 280 mg/m^2 once weekly",PR (PR = −50% or more reduction from baseline)
same,Best RANO Response (T1-Gad),"[2]; Subject-3 (PNOC014-03), BSA 0.79 m^2, dose cohort 280 mg/m^2 once weekly",PR (PR = −50% or more reduction from baseline)
same,Best RANO Response (T1-Gad),"[2]; Subject-4 (PNOC014-04), BSA 1.71 m^2, dose cohort 350 mg/m^2 once weekly",PD (PD = ≥25% growth from nadir)
same,Best RANO Response (T1-Gad),"[2]; Subject-5 (PNOC014-05), BSA 1.71 m^2, dose cohort 350 mg/m^2 once weekly",SD (SD = between −50% and +25%)
same,Best RANO Response (T1-Gad),"[2]; Subject-6 (PNOC014-06), BSA 1.6 m^2, dose cohort 350 mg/m^2 once weekly",PD (PD = ≥25% growth from nadir)
same,Best RANO Response (T1-Gad),"[2]; Subject-7 (PNOC014-07), BSA 1.48 m^2, dose cohort 420 mg/m^2 once weekly",SD (SD = between −50% and +25%)
same,Best RANO Response (T1-Gad),"[2]; Subject-9 (PNOC014-09), BSA 0.71 m^2, dose cohort 420 mg/m^2 once weekly",PR (PR = −50% or more reduction from baseline)
same,patients achieving a complete response maintained throughout the dosing period of up to two years,"[2]; nine pLGG patients, Phase 1",Two
same,patients achieving prolonged stable disease,"[2]; nine pLGG patients, Phase 1",two
same,patients who did not achieve a response,"[2]; nine pLGG patients, Phase 1",two
same,patients with a partial response,"[2]; nine pLGG patients, Phase 1",Three
same,patients with shrinkage in lesion size in the first radiologic images after initiation of dosing,"[2]; nine pLGG patients, Phase 1",six of nine
same,median time to response,"[2]; nine pLGG patients, Phase 1, 280-420 mg/m^2 once weekly",10.5 weeks
same,patients who did not respond,[2]; [3],One
same,patients with complete or partial response per RANO criteria (≥50% decrease compared with baseline),[2]; [3],Five of the eight
same,patients with prolonged stable disease,[2]; [3],Two of eight
